Read-outs that look alike come from different tables or passages of the source.
Legend:
[1] = Pharmacokinetics after intravenous or oral administration; format: in vivo, mice; details: intravenous administration
[2] = Stability in plasma, whole blood, gastric fluid and intestinal fluid; format: in vitro ADME; details: plasma or whole blood
Description: Ala-d4T-MP is stable both in plasma and in whole blood. […] This hypothesis is consistent with the formation of a significant amount of d4T after incubation of d4T-5′-[p-bromophenyl methoxyalaninyl phosphate] with a liver homogenate.
Orally administered d4T-5′-[p-bromophenyl methoxyalaninyl phosphate] also yielded Ala-d4T-MP and d4T as the major metabolites. […] This metabolite can be absorbed in the intestine and then further metabolized to yield d4T in the blood. The tmax and t1/2 values for d4T in mice were longer when derived from orally administered d4T-5′-[p-bromophenyl methoxyalaninyl phosphate] (42.4 minutes and 99.0 minutes, respectively) than from orally administered d4T (5 minutes and 18 minutes, respectively). The tmax value is higher but the t1/2 value is lower for orally administered d4T-5′-[p-bromophenyl methoxyalaninyl phosphate] compared to intravenously administered d4T-5′-[p-bromophenyl methoxyalaninyl phosphate]. […] However, the bioavailability of d4T metabolized from d4T-5′-[p-bromophenyl methoxyalaninyl phosphate] (48%) was lower than that of orally administered d4T (98%).

[3] = tested on: HIV-1 (HTLVIIIB) in TK-deficient CEM T-cells; test: Inhibition of HIV-1 replication in TK-deficient CEM T-cells (p24 / RT activity); format: cell-based
Description: (§1) Percent inhibition of viral replication was calculated by comparing the p24 and RT activity values from the test substance-treated infected cells with those from untreated infected cells. In parallel, the cytotoxicity of the compounds was examined using a microculture tetrazolium assay (MTA) of cell proliferation, as described.in the Zarling, Enrice, and Uckun articles Supra).
(§2) Cellular Assays of Anti-HIV Activity and Cytotoxicity. […] Percent viral inhibition was calculated by comparing the RT activity values from the test substance-treated infected cells with RT values from untreated infected cells (i.e., virus controls).

[4] = tested on: HIV-1 (strain: HTLVIIIB); test: microbe, parasite or virus in culture; format: cell-based; details: Human immunodeficiency virus 1, read-out: PBMNC IC50 [RT], PBMNC; unit not given in Table 5 (0.04 = 40 nM)
Description: as §1, §2

[5] = Microculture tetrazolium assay (MTA) cytotoxicity in PBMNC; details: human
Description: as §1, §2
(§3) Antiviral susceptibility assays. Phenotypic drug susceptibility studies of HIV-1 isolates and strains were performed by measuring the production of the p24 gag protein in peripheral blood mononuclear cells (PBMC) from seronegative healthy volunteers in the presence of increasing concentrations of the anti-HIV agent using the quantitative Coulter HIV-1 p24 antigen ezyme immunoassay (EIA) and HIV-1 p24 Antigen Kinetic Standard (Beckman Coulter), as previously described (Uckun, 1998, Antimicrobial Agents and Chemotherapy 37(4): 835-38). Informed consent was obtained from the blood donors according to DHHS guidelines using consent forms approved by the Institutional Review Board. In brief, PBMC were cultured for 72 h in RPMI 1640 medium (Gibco) supplemented with 20% (vol/vol) heat-inactivated fetal bovine serum, 5% human interleukin-2 (Zeptometrix), 2 mM L-glutamine, 25 mM HEPES, 2 g/L NaHCO3, 100 U/ml penicillin/streptomycin (Gibco), 50 μg/ml gentamicin (Gibco), and 5 μg/ml phytohemagglutinin-P (PHA-P) (Sigma) for 24-72 hours prior to exposure to HIV at a multiplicity of infection of 0.001-0.1 during a 1-h adsorbtion period at 37±1° C. in a humidified 5-7% CO2 atmosphere. Subsequently, cells were cultured in 96-well microtiter plates (100 μl/well; 2×10^6 cells/ml, triplicate wells) in the presence of the anti-HIV agents at 6-7 different concentrations ranging from 0.0001 μM to 100 μM, and 25 μL aliquots of culture supernatants were removed from the wells on day 6 after infection for p24 EIA, as previously described (Uckun, 1998, Antimicrobial Agents and Chemotherapy, 37(4):835-38). Controls included uninfected and untreated cells (background control) and infected but untreated (virus control) cells. The p24 EIA utilizes a murine monoclonal antibody to HIV core protein used to coat microwell strips to which the antigen present in the test culture supernatant samples binds. Percent inhibition of viral replication was calculated by comparing the p24 values from the test substance-treated infected cells with p24 values from untreated infected cells (i.e., virus controls). The IC50 values were determined using the Statview statistics program (SAS Institute, Inc.). In parallel, the effects of various treatments on cell viability were also examined as previously described (Uckun, 1998, Antimicrobial Agents and Chemotherapy, 42:383-388). In brief, noninfected PBMC were treated with each compound for 5 days under identical experimental conditions. A microculture tetrazolium assay (MTA) was performed to quantitate cellular proliferation (Uckun, 1998, Antimicrobial Agents and Chemotherapy, 42:383-388).
In parallel, the cytotoxicity of the compounds was examined using a microculture tetrazolium assay (MTA) of cell proliferation, as described (in the Zarling, Enrice, and Uckun articles Supra).

[6] = Microculture tetrazolium assay (MTA) cytotoxicity in CEM cells; details: human
Description: as §1, §2

[7] = tested on: HIV-2 (Strain: CBL-20); test: Inhibition of HIV-2 replication in PBMNC (RT activity); format: cell-based
Description: (P-AZT) and with AZT. The incubation and analysis methods used were as described above for Example 3.
as §2

[8] = tested on: AZT- and NNI-resistant HIV-1 (strain: RTMDR-1); test: Inhibition of RTMDR-1 (HIV-MDR) replication in PBMNC (RT activity); format: cell-based
Description: as §2

[9] = tested on: HIV-1 HTLVIIIB; test: microbe, parasite or virus in culture
Description: In vitro assays of anti-HIV-1 activity. Normal human peripheral blood mononuclear cells (PBMNC) from HIV-negative donors were cultured 72 hours in RPMI 1640 supplemented with 20% (v/v) heat-inactivated fetal bovine serum (FBS), 3% interleukin-2, 2 mM L-glutamine, 25 mM HEPES, 2 g/L NaHCO3, […], and […] prior to exposure to HIV-1 at a multiplicity of infection (MOI) of 0.1 during a 1 hour adsorption period at 37° C. in a humidified 5% CO2 atmosphere. Subsequently, cells were cultured in 96-well microtiter plates ([…]; 2×10^6 cells/mL) in the presence of various concentrations of d4T phosphoramidates and aliquots of culture supernatants were removed from the wells on the 7th day after infection for p24 antigen assays, as previously described (Uckun et al., 1998, Antimicrobial Agents and Chem., 42(2):383-388). The applied p24 enzyme immunoassay (EIA) was the unmodified kinetic assay commercially available from Coulter Corporation/Immunotech, Inc. (Westbrooke, Me.), which utilizes a murine mAb to HIV core protein coated onto microwell strips to which the antigen present in the test culture supernatant samples binds. Percent viral inhibition was calculated by comparing the p24 values from untreated infected cells (i.e., virus controls).
The anti-HIV activity of the compounds was examined by evaluating their ability to inhibit HIV replication in peripheral blood mononuclear cells using previously described procedures (Uckun et al., 1998, Antimicrobial Agents and Chem., 42(2):383-388). Percent inhibition of viral replication was calculated by comparing the p24 antigen levels from the test substance-treated infected cells with those from vehicle-treated infected cells.
as §3, with “Inc.).” for “Inc.). In parallel, the effects of various treatments on cell viability were also examined as previously described (Uckun, 1998, Antimicrobial Agents and Chemotherapy, 42:383-388). In brief, noninfected PBMC were treated with each compound for 5 days under identical experimental conditions. A microculture tetrazolium assay (MTA) was performed to quantitate cellular proliferation (Uckun, 1998, Antimicrobial Agents and Chemotherapy, 42:383-388).”

[10] = Human immunodeficiency virus 1, PBMC

SMILES: Cc1cn([C@H]2C=C[C@@H](COP(=O)(O)NC(C)C(=O)O)O2)c(=O)[nH]c1=O (stereo partly drawn) [Ala-d4T-MP, alaninyl-d4T-monophosphate]
- elimination half-life (t1/2) of the administered substance [1]: 28.5 min
- stability in plasma and whole blood [2]: stable

SMILES: COC(=O)C(C)NP(=O)(OC[C@H]1O[C@@H](n2cc(C)c(=O)[nH]c2=O)CC1N=[N+]=[N-])Oc1ccc(Br)cc1 (stereo partly drawn) [Compound 5c, AZT-5′-(para-bromophenylmethoxyalaninyl phosphate)]
- IC50 ([3]; Human immunodeficiency virus 1, CCRF-CEM, TK-deficient CEM cells, read-out: IC50 value for inhibition of RT activity): 40 nM
- IC50 ([3]; Human immunodeficiency virus 1, T-cell, TK-deficient CEM T-cells, Table 5, read-out: CEM IC50 [RT]): 40 nM
- times more effective than AZT in inhibiting HIV replication ([3]; TK-deficient CEM cells): 5 times
- IC50 [4]: 4 nM
- IC50 at 5 days [5]: > 10000 nM
- IC50 [6]: > 10000 nM
- IC50 ([7]; Human immunodeficiency virus 2, read-out: HIV-2 IC50 [RT]): 3900 nM
- antiviral activity against HIV-2 (in words) ([7]; PBMNC): not effective
- IC50 ([8]; Human immunodeficiency virus 1, read-out: HIV-MDR IC50 [RT]): 1500 nM
- IC50 ([8]; Human immunodeficiency virus 1, read-out: IC50 against HIV-MDR): 1500 nM
- IC50 ([8]; Human immunodeficiency virus 1, read-out: RTMDR-1 IC50 [RT]): 1500 nM
- antiviral activity against RTMDR-1 (in words) ([8]; PBMNC): not effective

SMILES: Cc1c(O)cccc1C(=O)N[C@@H](CSc1ccccc1)[C@H](O)CN1C[C@H]2CCCC[C@H]2C[C@H]1C(=O)NC(C)(C)C [nelfinavir]
- CC50 at 5 days [5]: 3500 ± 1400 nM
- SI(CC50/IC50) [9]: 583
- IC50 [9, 10]: 6 ± 3 nM
- IC90 [9, 10]: 84 ± 38 nM
